Earlier results, collected in US20200206184A1, “PHARMACEUTICAL COMPOSITIONS FOR THE TREATMENT OF DISEASE AND/OR SYMPTOMS IN ARTHRITIS” (priority 2004, published 2020).

Tests used:
[1] = tested on: PBQ-induced writhing in mice; settings: ranking among cannabinoids
[2] = tested on: TNF-α
[3] = tested on: nitric oxide
[4] = tested on: collagen induced arthritis model in mice
[5] = tested on: patient with Mediterranean fever; settings: 50 mg of THC

| SMILES | Inhibition of PBQ-induced writhing ([1]; mice, oral administration) | TNF-α production [2] | Nitric oxide production [3] | Arthritis in collagen induced arthritis model [4] | Reducing analgesia and inflammation [1] | Amount of analgesia that the patient required [5] |
| --- | --- | --- | --- | --- | --- | --- |
| C=C(C)[C@@H]1CCC(C)=C[C@H]1c1c(O)cc(CCCCC)cc1O [CBD, cannabidiol] | most effective | inhibition | inhibition | suppress arthritis in a dose dependant manner | – | – |
| CCCCCc1cc(O)c2c(c1)OC(C)(C)c1ccc(C)cc1-2 [CBN] | – | – | – | – | least effective | – |
| CCCCCc1cc(O)c2c(c1)OC(C)(C)[C@@H]1CCC(C)=C[C@@H]21 [THC, delta-9-tetrahydrocannabinol] | – | – | – | – | least effective | highly significant reduction |
